Assay results published in PubChem BioAssay AID256 (DTP/NCI, 2004).
“And” between values parts separate entries of the source, which are not always exact repeats. Identical values can stand only once. Inconclusive results and toxic doses are left out.

Test system: CD2F1 mice, L1210 leukemia ip, survival T/C
Assay: NCI In Vivo Anticancer Drug Screen. Data for tumor model L1210 Leukemia (intraperitoneal) in CD2F1 (CDF1) mice
Settings: higher = longer survival
How it was run: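 Antitumor effect is scored in animals hosting a serially transplanted tumor. Values compare compound-dosed animals against vehicle-only controls as a simple quotient.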

[1] = endpoint: mean survival time, dose: 50.0 mg/kg/injection, schedule: Q04DX003 (ip), vehicle: saline
[2] = endpoint: mean survival time, dose: 100.0 mg/kg/injection, schedule: Q04DX003 (ip), vehicle: saline
[3] = endpoint: mean survival time, dose: 100.0 mg/kg/injection, schedule: Q01DX009 (ip), vehicle: saline with Tween-80
[4] = endpoint: mean survival time, dose: 200.0 mg/kg/injection, schedule: Q01DX009 (ip), vehicle: saline with Tween-80
[5] = endpoint: mean survival time, dose: 400.0 mg/kg/injection, schedule: Q01DX009 (ip), vehicle: saline with Tween-80
[6] = endpoint: mean survival time, dose: 100.0 mg/kg/injection, schedule: Q04DX003 (ip), vehicle: saline with Tween-80
[7] = endpoint: mean survival time, dose: 200.0 mg/kg/injection, schedule: Q04DX003 (ip), vehicle: saline with Tween-80
[8] = endpoint: mean survival time, dose: 75.0 mg/kg/injection, schedule: Q01DX001 (ip), vehicle: saline
[9] = endpoint: mean survival time, dose: 400.0 mg/kg/injection, schedule: Q04DX003 (ip), vehicle: saline with Tween-80
[10] = endpoint: mean survival time, dose: 50.0 mg/kg/injection, schedule: Q01DX009 (ip), vehicle: saline with Tween-80

In the case of Nc1ccn([C@@H]2C=C(CO)[C@@H](O)[C@H]2O)c(=O)n1, the T/C (endpoint: median survival time, dose: 0.44 mg/kg/injection, schedule: Q01DX009 (ip), vehicle: saline) is reported as 162 % of control and 168 % of control, the T/C (endpoint: median survival time, dose: 0.45 mg/kg/injection, schedule: Q01DX009 (ip), vehicle: saline) is reported as 153 % of control and the T/C (endpoint: median survival time, dose: 0.67 mg/kg/injection, schedule: Q01DX009 (ip), vehicle: saline) is reported as 180 % of control (2×) and 191 % of control. For the same compound, the T/C (endpoint: median survival time, dose: 0.67 mg/kg/injection, schedule: Q01DX009 (oral), vehicle: saline) was 101 % of control, the T/C (endpoint: median survival time, dose: 1.5 mg/kg/injection, schedule: Q01DX009 (oral), vehicle: saline) was 155 % of control and 205 % of control and the T/C (endpoint: median survival time, dose: 2.0 mg/kg/injection, schedule: Q04DX003 (ip), vehicle: saline) was 171 % of control. For the same compound, the T/C (endpoint: median survival time, dose: 2.25 mg/kg/injection, schedule: Q01DX009 (ip), vehicle: saline) was 117 % of control and 246 % of control, the T/C (endpoint: median survival time, dose: 2.25 mg/kg/injection, schedule: Q01DX009 (oral), vehicle: saline) was 157 % of control and 225 % of control and the T/C (endpoint: median survival time, dose: 4.0 mg/kg/injection, schedule: Q01DX009 (ip), vehicle: saline) was 93 % of control. The T/C (endpoint: median survival time, dose: 4.0 mg/kg/injection, schedule: Q04DX003 (ip), vehicle: saline) was 191 % of control, the T/C (endpoint: median survival time, dose: 5.05 mg/kg/injection, schedule: Q01DX009 (oral), vehicle: saline) was 123 % of control and 104 % of control and the T/C (endpoint: median survival time, dose: 8.0 mg/kg/injection, schedule: Q04DX003 (ip), vehicle: saline) was 183 % of control. The T/C (endpoint: median survival time, dose: 250.0 micrograms/kg/injection, schedule: Q03HX024 (ip), vehicle: saline) was 187 % of control, the T/C (endpoint: median survival time, dose: 500.0 micrograms/kg/injection, schedule: Q03HX024 (ip), vehicle: saline) was 216 % of control and the T/C (endpoint: median survival time, dose: 2000.0 micrograms/kg/injection, schedule: Q03HX024 (ip), vehicle: saline) was 96 % of control.
For CC(=O)OCC1OC([S][Sb]([CH3])[CH3])C(OC(C)=O)C(OC(C)=O)C1OC(C)=O (centres undefined), the T/C (endpoint: mean survival time, dose: 50.0 mg/kg/injection, schedule: Q01DX009 (ip), vehicle: Klucel (hydroxypropylcellulose) (HPC)) was 92 % of control.
For NC(=O)C1=C(CCCCl)c2ccccc2C1=O, the T/C [1] was 112 % of control, the T/C (endpoint: mean survival time, dose: 100.0 mg/kg/injection, schedule: Q01DX001 (ip), vehicle: saline) was 102 % of control and the T/C [2] was 115 % of control. The T/C (endpoint: mean survival time, dose: 200.0 mg/kg/injection, schedule: Q01DX001 (ip), vehicle: saline) was 95 % of control and the T/C (endpoint: mean survival time, dose: 200.0 mg/kg/injection, schedule: Q04DX003 (ip), vehicle: saline) was 90 % of control.
COC(=O)c1cncc(C(=O)OC)c1 was tested, and the T/C [3] was 94 % of control, the T/C [4] was 92 % of control and the T/C [5] was 90 % of control.
For NC1CCCCC1N.O=C([O-])c1ccc(N=Nc2cccc([N+](=O)[O-])c2)cc1[O-].[Pt+4], the T/C (endpoint: median survival time, dose: 3.12 mg/kg/injection, schedule: Q04DX003 (ip), vehicle: saline with Tween-80) was 105 % of control and 109 % of control, the T/C (endpoint: median survival time, dose: 6.25 mg/kg/injection, schedule: Q04DX003 (ip), vehicle: saline with Tween-80) was 102 % of control and 110 % of control and the T/C (endpoint: median survival time, dose: 12.5 mg/kg/injection, schedule: Q04DX003 (ip), vehicle: saline with Tween-80) was 113 % of control. For the same compound, the T/C (endpoint: median survival time, dose: 25.0 mg/kg/injection, schedule: Q04DX003 (ip), vehicle: saline with Tween-80) was 116 % of control and 123 % of control, the T/C (endpoint: median survival time, dose: 50.0 mg/kg/injection, schedule: Q04DX003 (ip), vehicle: saline with Tween-80) was 123 % of control and the T/C (endpoint: median survival time, dose: 100.0 mg/kg/injection, schedule: Q04DX003 (ip), vehicle: saline with Tween-80) was 156 % of control. For the same compound, the T/C (endpoint: median survival time, dose: 200.0 mg/kg/injection, schedule: Q04DX003 (ip), vehicle: saline with Tween-80) was 166 % of control and 313 % of control.
NC(=S)N/N=C/c1ccc([N+](=O)[O-])cc1 was tested, and the T/C (endpoint: mean survival time, dose: 75.0 mg/kg/injection, schedule: Q01DX001 (ip), vehicle: saline with Tween-80) was 95 % of control.
In the case of CCn1c(C)[n+](CC)c2ccc(C(C)=O)cc21, the T/C (endpoint: mean survival time, dose: 25.0 mg/kg/injection, schedule: Q04DX003 (ip), vehicle: saline) is reported as 104 % of control, the T/C [1] is reported as 108 % of control and the T/C [2] is reported as 106 % of control.
NCCNCCNCCNCCN (tested in a mixture with another compound) was tested, and the T/C (endpoint: mean survival time, dose: 50.0 mg/kg/injection, schedule: Q01DX009 (ip), vehicle: saline) was 104 % of control, the T/C (endpoint: mean survival time, dose: 100.0 mg/kg/injection, schedule: Q01DX009 (ip), vehicle: saline) was 111 % of control and the T/C [6] was 110 % of control. For the same compound, the T/C [7] was 105 % of control.
For OC(CC1CCCC(CC(O)c2ccccc2)N1CCc1ccccc1)c1ccccc1 (centres undefined), the T/C [8] was 97 % of control and the T/C (endpoint: mean survival time, dose: 150.0 mg/kg/injection, schedule: Q01DX001 (ip), vehicle: saline) was 91 % of control.
For Nc1nc(SCC(=O)c2ccccc2)c2[nH]cnc2n1, the T/C (endpoint: mean survival time, dose: 100.0 mg/kg/injection, schedule: Q04DX003 (ip), vehicle: saline sonified) was 113 % of control, the T/C (endpoint: mean survival time, dose: 176.0 mg/kg/injection, schedule: Q04DX003 (ip), vehicle: saline with Tween-80) was 113 % of control and the T/C (endpoint: mean survival time, dose: 200.0 mg/kg/injection, schedule: Q04DX003 (ip), vehicle: saline sonified) was 107 % of control.
With CCOC(=O)Cc1nnc(N)s1 the T/C [6] was 96 % of control, the T/C [7] was 100 % of control and the T/C [9] was 102 % of control.
CC(CCOc1ccc(Cl)cc1Cl)C(=O)O (centres undefined) was tested, and the T/C (endpoint: mean survival time, dose: 100.0 mg/kg/injection, schedule: Q04DX002 (ip), vehicle: saline with Tween-80) was 104 % of control and the T/C (endpoint: mean survival time, dose: 200.0 mg/kg/injection, schedule: Q04DX002 (ip), vehicle: saline with Tween-80) was 86 % of control.
For O=C1CC2CCCCC2CO1 (centres undefined), the T/C [8] was 160 % of control.
For C=CC1(C)C(C)=C(C)C(C)=C1C, the T/C (endpoint: mean survival time, dose: 100.0 mg/kg/injection, schedule: Q01DX001 (ip), vehicle: saline sonified) was 100 % of control, the T/C (endpoint: mean survival time, dose: 200.0 mg/kg/injection, schedule: Q01DX001 (ip), vehicle: saline sonified) was 94 % of control and the T/C (endpoint: mean survival time, dose: 400.0 mg/kg/injection, schedule: Q01DX001 (ip), vehicle: saline sonified) was 89 % of control.
With CC(=O)Oc1ccc[nH]c1=O the T/C (endpoint: mean survival time, dose: 400.0 mg/kg/injection, schedule: Q01DX009 (ip), vehicle: saline) was 150 % of control and 156 % of control, the T/C (endpoint: mean survival time, dose: 600.0 mg/kg/injection, schedule: Q01DX009 (ip), vehicle: saline) was 100 % of control and 108 % of control and the T/C (endpoint: median survival time, dose: 16.7 mg/kg/injection, schedule: Q03HX027 (ip), vehicle: saline with Tween-80) was 103 % of control. For the same compound, the T/C (endpoint: median survival time, dose: 33.0 mg/kg/injection, schedule: Q03HX027 (ip), vehicle: saline with Tween-80) was 91 % of control and 102 % of control, the T/C (endpoint: median survival time, dose: 50.0 mg/kg/injection, schedule: Q01DX009 (ip), vehicle: saline with Tween-80) was 100 % of control and 101 % of control and the T/C (endpoint: median survival time, dose: 66.7 mg/kg/injection, schedule: Q03HX027 (ip), vehicle: saline with Tween-80) was 91 % of control and 93 % of control and 103 % of control. The T/C (endpoint: median survival time, dose: 100.0 mg/kg/injection, schedule: Q01DX009 (ip), vehicle: saline with Tween-80) was 100 % of control and 102 % of control and 103 % of control, the T/C (endpoint: median survival time, dose: 133.0 mg/kg/injection, schedule: Q03HX027 (ip), vehicle: saline with Tween-80) was 102 % of control and 103 % of control and 106 % of control and the T/C (endpoint: median survival time, dose: 200.0 mg/kg/injection, schedule: Q01DX009 (ip), vehicle: saline with Tween-80) was 103 % of control (2×) and 111 % of control. The T/C (endpoint: median survival time, dose: 266.0 mg/kg/injection, schedule: Q03HX027 (ip), vehicle: saline with Tween-80) was 185 % of control.
With CC(C)(CCC(=S)N1CCOCC1)C1CCCCC1 the T/C [6] was 97 % of control, the T/C [7] was 96 % of control and the T/C [9] was 97 % of control.
O=C(c1ccc(Cl)cc1)C(O)c1ccc(Cl)cc1 (centres undefined) was tested, and the T/C [3] was 93 % of control, the T/C [6] was 100 % of control and the T/C [4] was 98 % of control. For the same compound, the T/C [7] was 96 % of control, the T/C [5] was 107 % of control and the T/C [9] was 91 % of control.
With O=C1C2C3CCC(C3)C2C(=O)C2C3CCC(C3)C12 (centres undefined) the T/C (endpoint: mean survival time, dose: 100.0 mg/kg/injection, schedule: Q04DX003 (ip), vehicle: other) was 93 % of control, the T/C (endpoint: mean survival time, dose: 200.0 mg/kg/injection, schedule: Q04DX003 (ip), vehicle: other) was 89 % of control and the T/C (endpoint: mean survival time, dose: 400.0 mg/kg/injection, schedule: Q04DX003 (ip), vehicle: other) was 93 % of control.
CC(C)CC(CC(C)C)C(=O)C1C2CCC(O2)C1C(=O)C(CC(C)C)CC(C)C (centres undefined) was tested, and the T/C (endpoint: mean survival time, dose: 25.0 mg/kg/injection, schedule: Q04DX002 (ip), vehicle: saline with Tween-80) was 88 % of control.
In the case of CC1(C)N=C(N)N=C(N)N1c1ccc(C(=O)c2ccccc2)cc1, the T/C [6] is reported as 91 % of control.
With c1ccc2cc(N=NNc3ccc4ccccc4c3)ccc2c1 the T/C [10] was 94 % of control, the T/C [3] was 98 % of control and the T/C [6] was 95 % of control. The T/C [4] was 100 % of control and the T/C [7] was 92 % of control.
O=C(O)CCC(=O)CCC(=O)c1ccccc1 was tested, and the T/C [10] was 96 % of control, the T/C [3] was 98 % of control and the T/C [6] was 91 % of control. The T/C [4] was 98 % of control.
For CCCC(C(=O)OCC)C1=NC(C)(C)CC(C)O1 (centres undefined), the T/C (endpoint: mean survival time, dose: 100.0 mg/kg/injection, schedule: Q04DX003 (ip), vehicle: acetone) was 100 % of control, the T/C (endpoint: mean survival time, dose: 200.0 mg/kg/injection, schedule: Q04DX003 (ip), vehicle: acetone) was 102 % of control and the T/C (endpoint: mean survival time, dose: 400.0 mg/kg/injection, schedule: Q04DX003 (ip), vehicle: acetone) was 94 % of control.
